From ChEMBL document CHEMBL3992555, “Design, synthesis and preliminary biological evaluation of indole-3-carboxylic acid-based skeleton of Bcl-2/Mcl-1 dual inhibitors” (Bioorg Med Chem, 2017)
pIC50, pKi: −log10 of the molar value.

Assays:
[1] = molecular target: Apoptosis regulator Bcl-2 (Homo sapiens, UniProt P10415); test: Inhibition of N-terminal FAM-labeled Bid-BH3 peptide binding to Bcl2 (unknown origin) preincubated for 30 mins followed by N-terminal FAM-labeled Bid-BH3 peptide addition measured after 20 mins by fluorescence polarization assay
Sequence of Apoptosis regulator Bcl-2 (P10415 whole entry): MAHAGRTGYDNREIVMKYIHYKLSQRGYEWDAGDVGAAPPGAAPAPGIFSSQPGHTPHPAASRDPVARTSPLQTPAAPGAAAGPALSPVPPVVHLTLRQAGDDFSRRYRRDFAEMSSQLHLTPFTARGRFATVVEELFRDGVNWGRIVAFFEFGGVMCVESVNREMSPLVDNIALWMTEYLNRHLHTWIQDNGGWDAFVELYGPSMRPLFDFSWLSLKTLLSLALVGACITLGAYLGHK

[2] = molecular target: Induced myeloid leukemia cell differentiation protein Mcl-1 (Homo sapiens, UniProt Q07820); test: Inhibition of N-terminal FAM-labeled Bid-BH3 peptide binding to MCL1 (unknown origin) preincubated for 30 mins followed by N-terminal FAM-labeled Bid-BH3 peptide addition measured after 20 mins by fluorescence polarization assay
Sequence of Induced myeloid leukemia cell differentiation protein Mcl-1 (Q07820 whole entry): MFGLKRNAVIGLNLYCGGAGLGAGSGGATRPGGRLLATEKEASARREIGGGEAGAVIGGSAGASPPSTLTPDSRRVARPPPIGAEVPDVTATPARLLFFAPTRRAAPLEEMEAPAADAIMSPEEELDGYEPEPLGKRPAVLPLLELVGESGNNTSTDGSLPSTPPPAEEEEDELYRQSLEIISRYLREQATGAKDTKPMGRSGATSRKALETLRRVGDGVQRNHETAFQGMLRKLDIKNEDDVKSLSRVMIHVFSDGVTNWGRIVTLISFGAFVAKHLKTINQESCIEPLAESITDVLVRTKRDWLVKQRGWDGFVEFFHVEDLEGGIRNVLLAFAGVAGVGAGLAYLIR

Bcl-2-like protein 1 = Bcl-2-like protein 1 (Homo sapiens, UniProt Q07817); test: Inhibition of N-terminal FAM-labeled Bid-BH3 peptide binding to Bcl-XL (unknown origin) preincubated for 30 mins followed by N-terminal FAM-labeled Bid-BH3 peptide addition measured after 20 mins by fluorescence polarization assay
Sequence of Bcl-2-like protein 1 (Q07817 whole entry): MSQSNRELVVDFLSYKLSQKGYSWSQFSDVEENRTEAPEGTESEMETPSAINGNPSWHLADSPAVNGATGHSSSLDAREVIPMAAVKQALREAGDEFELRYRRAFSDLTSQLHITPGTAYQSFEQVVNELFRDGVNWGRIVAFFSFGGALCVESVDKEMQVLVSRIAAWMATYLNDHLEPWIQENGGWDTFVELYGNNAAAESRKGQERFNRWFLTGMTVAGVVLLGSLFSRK

MDA-MB-231 = test: Antiproliferative activity against human MDA-MB-231 cells after 48 hrs by MTT assay; format: functional, cell-based; details: MDA-MB-231, 48 h
K562 = test: Antiproliferative activity against human K562 cells after 48 hrs by MTT assay; format: functional, cell-based; details: K562, 48 h
PC-3 = test: Antiproliferative activity against human PC3 cells after 48 hrs by MTT assay; format: functional, cell-based; details: PC-3, 48 h

pKi [1] | SMILES | further results
< 5.00 | O=C(N[C@@H](Cc1ccc(OCc2ccc([N+](=O)[O-])cc2)cc1)C(=O)NS(=O)(=O)c1ccc(Cl)c([N+](=O)[O-])c1)c1cn(Cc2ccc(-c3ccc(Cl)cc3)cc2)c2ccccc12 | –
5.59 | O=C(N[C@@H](Cc1ccccc1)C(=O)NS(=O)(=O)c1ccc(Cl)c([N+](=O)[O-])c1)c1cn(Cc2ccc(-c3ccccc3)cc2)c2ccccc12 | –
< 5.00 | COc1ccc(-c2ccc(Cn3cc(C(=O)N[C@@H](Cc4ccc(OCc5ccccc5)cc4)C(=O)NS(=O)(=O)c4ccc(Cl)c([N+](=O)[O-])c4)c4ccccc43)cc2)cc1 | –
< 5.00 | O=C(N[C@@H](Cc1ccc(OCc2ccccc2)cc1)C(=O)NS(=O)(=O)c1ccc(Cl)c([N+](=O)[O-])c1)c1cn(Cc2ccc(-c3ccc(Cl)cc3)cc2)c2ccccc12 | –
6.59 | O=C(N[C@@H](Cc1ccccc1)C(=O)NS(=O)(=O)c1ccc(Cl)c([N+](=O)[O-])c1)c1cn(Cc2ccc(-c3ccc(Cl)cc3)cc2)c2ccccc12 | pIC50 (MDA-MB-231): 4.53; pIC50 (K562): 4.71; pKi [2]: 7.14; pKi (Bcl-2-like protein 1): 6.15; pIC50 (PC-3): 4.54
< 5.00 | CCCOc1ccc(C[C@H](NC(=O)c2cn(Cc3ccc(-c4ccc(Cl)cc4)cc3)c3ccccc23)C(=O)NS(=O)(=O)c2ccc(Cl)c([N+](=O)[O-])c2)cc1 | –
< 5.00 | COc1ccc(-c2ccc(Cn3cc(C(=O)N[C@@H](Cc4c[nH]c5ccccc45)C(=O)NS(=O)(=O)c4ccc(Cl)c([N+](=O)[O-])c4)c4ccccc43)cc2)cc1 | –
< 5.00 | COc1ccc(-c2ccc(Cn3cc(C(=O)N[C@@H](Cc4ccc(OCc5ccc([N+](=O)[O-])cc5)cc4)C(=O)NS(=O)(=O)c4ccc(Cl)c([N+](=O)[O-])c4)c4ccccc43)cc2)cc1 | –
< 5.00 | O=C(N[C@@H](Cc1ccc(Br)cc1)C(=O)NS(=O)(=O)c1ccc(Cl)c([N+](=O)[O-])c1)c1cn(Cc2ccc(-c3ccccc3)cc2)c2ccccc12 | –
< 5.00 | CCCOc1ccc(C[C@H](NC(=O)c2cn(Cc3ccc(-c4ccc(Cl)cc4)cc3)c3ccccc23)C(=O)NS(=O)(=O)c2ccc([N+](=O)[O-])cc2)cc1 | –
< 5.00 | O=C(N[C@@H](Cc1ccc(OCc2ccccc2)cc1)C(=O)NS(=O)(=O)c1ccc(Cl)c([N+](=O)[O-])c1)c1cn(Cc2ccc(-c3ccccc3)cc2)c2ccccc12 | –
< 5.00 | COc1ccc(-c2ccc(Cn3cc(C(=O)N[C@@H](Cc4ccc(Br)cc4)C(=O)NS(=O)(=O)c4ccc(Cl)c([N+](=O)[O-])c4)c4ccccc43)cc2)cc1 | –
< 5.00 | CCCOc1ccc(C[C@H](NC(=O)c2cn(Cc3ccc(-c4ccc(OC)cc4)cc3)c3ccccc23)C(=O)NS(=O)(=O)c2ccc(Cl)c([N+](=O)[O-])c2)cc1 | –
< 5.00 | O=C(N[C@@H](Cc1ccc(OCc2ccc([N+](=O)[O-])cc2)cc1)C(=O)NS(=O)(=O)c1ccc(Cl)c([N+](=O)[O-])c1)c1cn(Cc2ccc(-c3ccccc3)cc2)c2ccccc12 | –
6.12 | COc1ccc(-c2ccc(Cn3cc(C(=O)N[C@@H](Cc4c[nH]c5ccccc45)C(=O)NS(=O)(=O)c4ccc(C)cc4)c4ccccc43)cc2)cc1 | pIC50 (MDA-MB-231): 4.94; pIC50 (K562): 5.00; pKi [2]: 6.28; pIC50 (PC-3): 4.74
< 5.00 | O=C(N[C@@H](Cc1ccc(Br)cc1)C(=O)NS(=O)(=O)c1ccc(Cl)c([N+](=O)[O-])c1)c1cn(Cc2ccc(-c3ccc(Cl)cc3)cc2)c2ccccc12 | –
< 5.00 | COc1ccc(-c2ccc(Cn3cc(C(=O)N[C@@H](Cc4ccccc4)C(=O)NS(=O)(=O)c4ccc(Cl)c([N+](=O)[O-])c4)c4ccccc43)cc2)cc1 | –
< 5.00 | Cc1ccc(-c2ccc(Cn3cc(C(=O)N[C@@H](Cc4ccc(OCc5ccccc5)cc4)C(=O)NS(=O)(=O)c4ccc(Cl)c([N+](=O)[O-])c4)c4ccccc43)cc2)cc1 | –
5.25 | CCCOc1ccc(C[C@H](NC(=O)c2cn(Cc3ccc(-c4ccccc4)cc3)c3ccccc23)C(=O)NS(=O)(=O)c2ccc(Cl)c([N+](=O)[O-])c2)cc1 | –
– | Cc1cc2c(C(C)C)c(O)c(O)c(C=O)c2c(O)c1-c1c(C)cc2c(C(C)C)c(O)c(O)c(C=O)c2c1O [GOSSYPOL] | pIC50 (MDA-MB-231): 5.07; pIC50 (K562): 5.08; pIC50 (PC-3): 5.07

SMILES | pKi [1] | further results
Cc1ccc(S(=O)(=O)NC(=O)[C@H](Cc2ccccc2)N2C(=O)/C(=C/c3ccc(-c4ccccc4)cc3)SC2=S)cc1 | 6.12 | pKi [2]: 6.36; pKi (Bcl-2-like protein 1): 6.09
COc1ccc(-c2ccc(Cn3cc(C(=O)N[C@@H](Cc4ccccc4)C(=O)NS(=O)(=O)c4ccccc4)c4ccccc43)cc2)cc1 | 5.89 | –
CC(C)C[C@H](NC(=O)c1cn(Cc2ccc(-c3ccc(Cl)cc3)cc2)c2ccccc12)C(=O)NS(=O)(=O)c1ccccc1 | 6.04 | pKi [2]: 6.22; pKi (Bcl-2-like protein 1): 5.21
O=C(N[C@@H](Cc1ccc(Br)cc1)C(=O)NS(=O)(=O)c1ccccc1)c1cn(Cc2ccc(-c3ccc(Cl)cc3)cc2)c2ccccc12 | 6.04 | –
O=C(N[C@@H](Cc1ccccc1)C(=O)NS(=O)(=O)c1ccccc1)c1cn(Cc2ccc(-c3ccccc3)cc2)c2ccccc12 | < 5.00 | –
O=C(N[C@@H](Cc1ccccc1)C(=O)NS(=O)(=O)c1ccccc1)c1cn(Cc2ccc(-c3ccc(Cl)cc3)cc2)c2ccccc12 | 6.13 | pIC50 (MDA-MB-231): 4.53; pIC50 (K562): 4.49; pKi [2]: 6.31; pKi (Bcl-2-like protein 1): 5.68; pIC50 (PC-3): 4.63
COc1ccc(-c2ccc(Cn3cc(C(=O)N[C@@H](Cc4ccccc4)C(=O)O)c4ccccc43)cc2)cc1 | < 5.00 | –
